Reference: patent publication US12447145B2, “Compositions and methods for treating inflammatory neurological disorders” (Georgetown University, priority 2018, dated 2025)

Columns and labels:
[1] = tested on: EAE mice; experiment: Experimental autoimmune encephalomyelitis (EAE) mouse model, clinical scoring; type: in vivo, C57BL/6 female mice
Excerpt: C57BL/6 female mice (Charles River) at age 10-12 weeks were acclimatized for 7 days prior to inducing experimental autoimmune encephalomyelitis (EAE). EAE was induced using the EAE kit (Hooke Laboratories, Cat. No: EK-2110) according to the Hooke Laboratories protocol (on the world wide web at hookelabs.com/protocols/eaeAI_C57BL6.html). Briefly, mice were immunized by an emulsion of MOG35-55 in complete Freund's adjuvant (CFA) injected subcutaneously at two sites (Day 0), followed by administration of pertussis toxin (PTX) intraperitoneally, first on the day of immunization (Day 0), and then again the following day (Day 1). Approximately 115 ng of PTX for each of the two PTX administrations were used.
The mice were scored blindly and daily from EAE Day 7 until at least EAE Day 30 according to the protocol from Hooke Laboratories. The scoring system used was as follows: 0.0=no obvious changes in motor function; 0.5=tip of tail is limp; 1.0=limp tail; 1.5=limp tail and hind leg inhibition; 2.0=limp tail and weakness of hind legs or signs of head tilting; 2.5=limp tail and dragging of hind legs or strong head tilting; 3.0=limp tail and complete paralysis of hind legs or limp tail with paralysis of one front and one hind leg; 3.5=limp tail and complete paralysis of hind legs plus mouse unable to right itself when placed on its side; 4.0=limp tail, complete hind leg and partial front leg paralysis, mouse is minimally moving but appears alert and feeding; 4.5=complete hind and partial front leg paralysis, no movement around the cage, mouse is not alert; 5.0=mouse is found dead due to paralysis or mouse is euthanized due to severe paralysis
The clinical scores and weight of mice were recorded daily until the end of experiment. […] For each experiment, 8 to 10 mice from each group were analyzed.
EAE mice were treated with L-type amino acid transporter 1 (LAT1) inhibitor JPH203 dihydrochloride starting at scores 1.0 and 3.0. […] Clinical scores of the animals from each group were recorded at 1-7 days after the first injection.

[2] = tested on: CNS lesions (lysolecithin-induced focal demyelination); experiment: Lysolecithin-induced focal demyelination of the spinal cord, immunohistochemistry of lesions; type: in vivo, mice
Method: Focal demyelination was induced by injecting 1% lysolecithin (Sigma-Aldrich) into the spinal cord ventral funiculus of 8-12 weeks old C57B1/6 mice of either sex. At 5 and 10 days post lesion (dpl), mice were perfused intracardially with 4% (w/v) paraformaldehyde (PFA; Sigma). To perform IHC, mice were perfusion-fixed with 4% PFA (Sigma). Spinal cords were dissected and postfixed for 30 min in 4% PFA at 4° C. and cryoprotected in 20% (w/v) sucrose (Sigma) in PBS overnight before freezing in O.C.T. on the surface of dry ice. Twelve-micrometer-thick spinal cord sections were cut using cryostat (Leica CM1900), collected on SuperFrostPlus slides (VWR International), and allowed to dry for 30 min before storing at −80° C. For IHC, sections were incubated in blocking solution (0.1% Triton™ X-100 and 10% FBS in PBS) for 1 h at room temperature (RT). Primary antibodies were diluted in blocking solution and applied overnight at 4° C. Fluorescent dye-conjugated secondary antibodies were obtained from Life Technologies and used according to the manufacturer's instruction. Focal demyelination was induced by injecting 1% lysolecithin, JPH203 or PBS control was injected via intraperitoneal from 5-9 dpl. Mice were sacrificed at 10 dpl by intracardial perfusion with 4% PFA (Sigma). IHC was performed as previously described. Twelve-micrometer-thick fixed spinal cord sections were cut using cryostat (Leica CM1900), collected on SuperFrostPlus slides (VWR International), and allowed to dry for 30 min before storing at −80° C. For IHC, sections were incubated in blocking solution (0.1% Triton™ X-100 and 10% FBS in PBS) for 1 h at room temperature (RT). Primary antibodies were diluted in blocking solution and applied overnight at 4° C. Sources and dilutions of primary antibodies were as follows: rabbit anti-Olig2 (1:300; Millipore), mouse anti-CC1 (1:200; Sigma). Fluorescent dye-conjugated secondary antibodies were obtained from Life Technologies and used according to the manufacturer's instruction. Antigen retrieval was used for Olig2 and mouse on mouse antigen retrieval with M.O.M.™ kit (Vector Laboratories) for CC1. DAPI nuclear counterstain was used before mounting sections with fluoromount-G (Southern-Biotech). ImageJ (NIH) was used to quantify Olig2+ CC1+ cells.

Nc1cc(COc2c(Cl)cc(C[C@H](N)C(=O)O)cc2Cl)c2oc(-c3ccccc3)nc2c1 [JPH203, (S)-2-Amino-3-(4-((5-amino-2-phenylbenzo[d]oxazol-7-yl)methoxy)-3,5-dichlorophenyl) propanoic acid]
progression of EAE to higher scores ([1]; prophylactic treatment starting at score 1.0, PBS controls progressed to score 3.0 or higher, FIG. 2B): prevented progression of EAE to higher scores | motor recovery (clinical score), prophylactic efficacy ([1]; treatment starting at clinical score 1.0, 25 mg/kg intraperitoneal daily for 5 days, compared to PBS control, FIG. 2B): motor recovery | motor recovery (clinical score), treatment efficacy ([1]; treatment starting at clinical score 3.0, 25 mg/kg intraperitoneal daily for 5 days, compared to PBS control, FIG. 2A): motor recovery | macrophage morphology in lesion at higher magnification ([2]; 10 dpl, control lesion macrophages rounded amoeboid/foamy, FIG. 3F/3G): more ramified appearance, indicating reduced inflammatory activity | iNOS labeling of macrophages at higher magnification ([2]; 10 dpl, versus control lesion, FIG. 3F/3G): very little iNOS labeling | number of mature oligodendrocytes in lesions ([2]; intraperitoneal injection 5-9 dpl, analysis at 10 dpl, compared to PBS control, FIG. 3A/3B): increased number of mature oligodendrocytes in lesions | increase in oligodendrocytes (Olig2+ CC1+ cells), quantification ([2]; intraperitoneal injection 5-9 dpl, analysis at 10 dpl, versus PBS control, FIG. 3C, P<0.05): 2 fold | pro-inflammatory iNOS expression in lesion (Iba1+iNOS+ microglia/macrophages) ([2]; intraperitoneal injection 5-9 dpl, analysis at 10 dpl, versus PBS treated lesion, FIG. 3D/3E): dramatically reduced pro-inflammatory iNOS expression
